Where two headings read alike, the source gives them in different places.
Assays:
TNFα = test: IRAK4 Monocyte TNFα Cell Based Assay; parameters: species or system human; settings: read-out: EC50MONO TNF HTRF
IRAK4 enzyme = IRAK4 enzyme (Homo sapiens (Human), UniProt Q9NWZ3); test: IRAK4 Biochemical Assay (TR-FRET, STK1 KinEASE)
[1] = second part of Table 2 (compounds 33-343), unit inferred, read-out: IC50 IRAK4-HTBS
[2] = Homo sapiens, Monocyte, human monocytes, second part of Table 2 (compounds 33-343), unit inferred

Sequence of IRAK4 enzyme (Q9NWZ3 whole entry): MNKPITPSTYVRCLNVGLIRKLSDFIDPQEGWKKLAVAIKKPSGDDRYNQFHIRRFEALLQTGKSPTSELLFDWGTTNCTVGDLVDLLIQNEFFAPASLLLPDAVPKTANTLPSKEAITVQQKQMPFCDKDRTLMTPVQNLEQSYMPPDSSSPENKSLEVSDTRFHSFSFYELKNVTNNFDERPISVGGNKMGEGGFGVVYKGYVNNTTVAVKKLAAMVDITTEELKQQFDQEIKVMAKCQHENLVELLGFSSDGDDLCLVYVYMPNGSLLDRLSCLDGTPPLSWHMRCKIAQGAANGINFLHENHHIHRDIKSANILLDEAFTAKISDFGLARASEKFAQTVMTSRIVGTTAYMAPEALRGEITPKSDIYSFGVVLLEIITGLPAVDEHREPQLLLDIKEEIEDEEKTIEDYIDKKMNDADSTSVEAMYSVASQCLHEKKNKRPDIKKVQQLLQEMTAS

| Molecule | EC50 (TNFα; human monocytes, second part of Table 2 (compounds 33-343), unit inferred) [nM] | IC50 (IRAK4 enzyme; [1]) [nM] | EC50 (TNFα; [2]) [nM] | IC50 (IRAK4 enzyme) [nM] | EC50 (TNFα; Homo sapiens, Monocyte) [nM] |
| --- | --- | --- | --- | --- | --- |
| N1-((1R,5S,8s)-3-(5-(6-(3-cyanopyrrolo[1,2-b]pyridazin-7-yl)-4-(isopropylamino)pyridin-3-yl)-1,3,4-thiadiazol-2-yl)-3-azabicyclo[3.2.1]octan-8-yl)-N2-(dimethyl(oxo)-16-sulfanylidene)oxalamide [Example 103] | 1.4 | 0.51 |  |  |  |
| COC(=O)N[C@H]1CCN(C(=O)c2nnc(-c3cnc(-c4ccc5cc(C#N)cnn45)cc3NC(C)C)s2)C1 [Example 43, methyl (S)-(1-(5-(6-(3-cyanopyrrolo[1,2-b]pyridazin-7-yl)-4-(isopropylamino)pyridin-3-yl)-1,3,4-thiadiazole-2-carbonyl)pyrrolidin-3-yl)carbamate] |  |  | 21.9 | 0.72 |  |
| CC(C)Nc1cc(-c2ccc3cc(C#N)cnn23)ncc1-c1nnc(C(=O)N2CC[C@@H](NC(=O)C3CC3)C2)s1 [Example 47, (R)-N-(1-(5-(6-(3-cyanopyrrolo[1,2-b]pyridazin-7-yl)-4-(isopropylamino)pyridin-3-yl)-1,3,4-thiadiazole-2-carbonyl)pyrrolidin-3-yl)cyclopropanecarboxamide] |  |  | 5680 | 1.42 |  |
| CC(C)Nc1cc(-c2ccc3cc(C#N)cnn23)ncc1-c1nnc(C2CCOC2)s1 (centres unmarked) [Compound 322, 7-(4-(isopropylamino)-5-(5-(tetrahydrofuran-3-yl)-1,3,4-thiadiazol-2-yl)pyridin-2-yl)pyrrolo[1,2-b]pyridazine-3-carbonitrile] |  |  | 419 | 0.31 |  |
| CC(=O)N[C@H]1CCN(c2nnc(-c3cnc(-c4ccc5cc(C#N)cnn45)cc3NC(C)C)s2)C1 [Compound 331, (S)-N-(1-(5-(6-(3-cyanopyrrolo[1,2-b]pyridazin-7-yl)-4-(isopropylamino)pyridin-3-yl)-1,3,4-thiadiazol-2-yl)pyrrolidin-3-yl)acetamide] |  |  | 81.4 | 1.21 |  |
| C[C@H](C#N)Nc1cc(-c2ccc3cc(C#N)cnn23)ncc1-c1nnc(N2CCC(C)(O)CC2)s1 [Example 180, (R)-7-(4-((1-cyanoethyl)amino)-5-(5-(4-hydroxy-4-methylpiperidin-1-yl)-1,3,4-thiadiazol-2-yl)pyridin-2-yl)pyrrolo[1,2-b]pyridazine-3-carbonitrile] |  |  | 6.8 | 0.4 |  |
| CC(=O)N1C[C@H]2COC[C@@H](C1)N2c1nnc(-c2cnc(-c3ccc4cc(C#N)cnn34)cc2NC(C)C)s1 [Compound 266, 7-(5-(5-((1R,5S)-7-acetyl-3-oxa-7,9-diazabicyclo[3.3.1]nonan-9-yl)-1,3,4-thiadiazol-2-yl)-4-(isopropylamino)pyridin-2-yl)pyrrolo[1,2-b]pyridazine-3-carbonitrile] |  | 0.49 |  |  | 3.2 |
| CC(C)Nc1cc(-c2ccc3cc(C#N)cnn23)ncc1-c1nnc(N2CC3(CCNC3=O)C2)s1 [Example 164, 7-(4-(isopropylamino)-5-(5-(5-oxo-2,6-diazaspiro[3.4]octan-2-yl)-1,3,4-thiadiazol-2-yl)pyridin-2-yl)pyrrolo[1,2-b]pyridazine-3-carbonitrile] |  |  | 17.5 | 0.55 |  |
| CC(C)Nc1cc(-c2ccc3cc(C#N)cnn23)ncc1-c1nnc(N2CCC(O)(C(F)(F)F)CC2)s1 [Example 172, 7-(5-(5-(4-hydroxy-4-(trifluoromethyl)piperidin-1-yl)-1,3,4-thiadiazol-2-yl)-4-(isopropylamino)pyridin-2-yl)pyrrolo[1,2-b]pyridazine-3-carbonitrile] |  |  | 34.4 | 2.99 |  |
| CC(=O)NC1CN(c2nnc(-c3cnc(-c4ccc5cc(C#N)cnn45)cc3NC(C)C)s2)CC1(F)F (centres unmarked) [Compound 327, N-(1-(5-(6-(3-cyanopyrrolo[1,2-b]pyridazin-7-yl)-4-(isopropylamino)pyridin-3-yl)-1,3,4-thiadiazol-2-yl)-4,4-difluoropyrrolidin-3-yl)acetamide] |  |  | 10.2 | 0.37 |  |
